Measurements taken from US11000033B2, “Ketone or oxime compound, and herbicide” (NISSAN CHEMICAL CORPORATION, priority 2014, dated 2021).

Tests used:
Assay type in all cases: in vivo
[1] = test system: Monochoria vaginalis; test: Test Example 2: herbicidal activity, application during weed generation in submerged conditions (symbol C); conditions: Table 23; application herbicide amount 320 g/ha; grade 0-5 by criteria of Test Example 1
In short: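 Flooded-soil post-emergence test: emulsion of compound, water-diluted to target rate, applied to paddy water surface at 1–2 leaf stage of mixed-sown weeds (alluvial soil, 4 cm water, 25–30° C. greenhouse); visual rating 3 weeks after application.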

[2] = test system: Cyperus difformis; test: Test Example 3: herbicidal effect by foliage application, Wagner pot (symbol E); conditions: application herbicide amount 320 g/ha
In short: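 Rating at 3 weeks post-spray, by defined criteria. Treatment: emulsion diluted with water to a predetermined amount, applied evenly to foliage of 14-day-old plants raised in alluvial soil flooded 0.1–0.5 cm deep at 25–30 °C, rice co-sown.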

[3] = test system: directly sowed rice plant; test: Test Example 3: effect on crop by foliage application, Wagner pot (symbol b); conditions: application herbicide amount 320 g/ha
In short: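 Alluvial soil in a 1/10000-are Wagner pot was flooded to a water depth of 0.1–0.5 cm. Echinochloa crus-galli var. crus-galli, Leptochloa chinensis, Cyperus difformis and rice were sown into it and grown in a greenhouse at 25–30 °C.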

[4] = test system: Setaria viridis; test: Test Example 4: herbicidal effect by soil treatment (symbol G); conditions: application herbicide amount 320 g/ha
In short: (§1)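 Seeds were sown in sterilized diluvial soil, covered with about 1.5 cm of soil, and the soil surface was sprayed with a water-diluted emulsion of the compound at a predetermined rate. Plants grew in a greenhouse at 25° C. to 30° C.; effects were scored visually 3 weeks after application.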

[5] = test system: Apera spica-venti; test: Test Example 4: herbicidal effect by soil treatment (symbol L); conditions: application herbicide amount 320 g/ha
In short: as §1

[6] = test system: Abutilon theophrasti; test: Test Example 4: herbicidal effect by soil treatment (symbol M); conditions: application herbicide amount 320 g/ha
In short: as §1

[7] = test system: Amaranthus retroflexus; test: Test Example 4: herbicidal effect by soil treatment (symbol N); conditions: application herbicide amount 320 g/ha
In short: as §1

[8] = test system: rice; test: Test Example 4: effect on crop by soil treatment (symbol b); conditions: application herbicide amount 320 g/ha
In short: (§2)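 Crop seeds, among them rice, wheat, beet and rapeseed, were sown in sterilized diluvial soil and covered with about 1.5 cm of soil. Boxes were kept in a greenhouse at 25° C. to 30° C. for plant growth.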

[9] = test system: wheat; test: Test Example 4: effect on crop by soil treatment (symbol e); conditions: application herbicide amount 320 g/ha
In short: as §2

[10] = test system: Digitaria ciliaris; test: Test Example 5: herbicidal effect by foliage application, plastic box (symbol F); conditions: 320 g/ha, 3 weeks after application
In short: (§3)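 Seeds were sown in sterilized diluvial soil, covered with about 1.5 cm of soil and grown 14 days in a greenhouse at 25° C. to 30° C. An emulsifiable formulation diluted in water to a set rate was sprayed over foliage, and injury was scored 3 weeks later.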

[11] = test system: Avena fatua; test: Test Example 5: herbicidal effect by foliage application, plastic box (symbol I); conditions: 320 g/ha, 3 weeks after application
In short: as §3

[12] = test system: Alopecurus myosuroides; test: Test Example 5: herbicidal effect by foliage application, plastic box (symbol J); conditions: 320 g/ha, 3 weeks after application
In short: as §3

[13] = test system: soybean; test: Test Example 5: effect on crop by foliage application, plastic box (symbol d); conditions: 320 g/ha, 3 weeks after application
In short: (§4)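 Diluvial soil, sterilized and boxed (21 × 13 × 7 cm), received spot-sown seed covered by about 1.5 cm soil; plants were then greenhouse-grown at 25–30° C.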

[14] = test system: wheat; test: Test Example 5: effect on crop by foliage application, plastic box (symbol e); conditions: 320 g/ha, 3 weeks after application
In short: as §4

[15] = test system: beet; test: Test Example 5: effect on crop by foliage application, plastic box (symbol f); conditions: 320 g/ha, 3 weeks after application
In short: as §4

Compound | Herbicidal effect grade, C: Monochoria vaginalis [1] | herbicidal effect on E, grade 0-5 [2] | effect on crop b (directly sowed rice plant), grade 0-5 [3] | G (Setaria viridis) herbicidal effect grade [4] | L (Apera spica-venti) herbicidal effect grade [5] | M (Abutilon theophrasti) herbicidal effect grade [6] | N (Amaranthus retroflexus) herbicidal effect grade [7] | b (directly sowed rice plant) effect on crop grade [8] | e (wheat) effect on crop grade [9] | F: Digitaria ciliaris, herbicidal effect grade [10] | I: Avena fatua, herbicidal effect grade [11] | J: Alopecurus myosuroides, herbicidal effect grade [12] | d: soybean, effect on crop grade [13] | e: wheat, effect on crop grade [14] | f: beet, effect on crop grade [15] | other results
CON=C(C)CC1CC(OC(=O)COc2ccc(Cl)cc2)=C(c2c(C)cc(C)cc2C)C1=O (stereo not drawn) [1-044] | 3 (Herbicidal ratio of 40% or higher and lower than 70%) | 5 (Herbicidal ratio of 90% or more (almost completely withered)) | 5 (Herbicidal ratio of 90% or more (almost completely withered)) | 5 (Herbicidal ratio of 90% or more (almost completely withered)) | 5 (Herbicidal ratio of 90% or more (almost completely withered)) | 5 (Herbicidal ratio of 90% or more (almost completely withered)) | 4 (Herbicidal ratio of 70% or higher and lower than 90%) | 5 (Herbicidal ratio of 90% or more (almost completely withered)) | 2 (Herbicidal ratio of 20% or higher and lower than 40%) | 5 (Herbicidal ratio of 90% or more (almost completely withered)) | 5 (Herbicidal ratio of 90% or more (almost completely withered)) | 5 (Herbicidal ratio of 90% or more (almost completely withered)) | 4 (Herbicidal ratio of 70% or higher and lower than 90%) | 5 (Herbicidal ratio of 90% or more (almost completely withered)) | 2 (Herbicidal ratio of 20% or higher and lower than 40%) | 
CON=C(C)C(C)C1CC(O)=C(c2c(C)cc(C)cc2C)C1=O (stereo not drawn) [1-032] | 3 (Herbicidal ratio of 40% or higher and lower than 70%) | 5 (Herbicidal ratio of 90% or more (almost completely withered)) | 5 (Herbicidal ratio of 90% or more (almost completely withered)) | 5 (Herbicidal ratio of 90% or more (almost completely withered)) | 5 (Herbicidal ratio of 90% or more (almost completely withered)) | 4 (Herbicidal ratio of 70% or higher and lower than 90%) | 4 (Herbicidal ratio of 70% or higher and lower than 90%) | 5 (Herbicidal ratio of 90% or more (almost completely withered)) | 5 (Herbicidal ratio of 90% or more (almost completely withered)) | 5 (Herbicidal ratio of 90% or more (almost completely withered)) | 5 (Herbicidal ratio of 90% or more (almost completely withered)) | 5 (Herbicidal ratio of 90% or more (almost completely withered)) | 4 (Herbicidal ratio of 70% or higher and lower than 90%) | 5 (Herbicidal ratio of 90% or more (almost completely withered)) | 3 (Herbicidal ratio of 40% or higher and lower than 70%) | 
CON=C(C)CC1CC(OC(=O)CCC2CCCCC2)=C(c2c(C)cc(C)cc2C)C1=O (stereo not drawn) [1-035] | 4 (Herbicidal ratio of 70% or higher and lower than 90%) | 5 (Herbicidal ratio of 90% or more (almost completely withered)) | 5 (Herbicidal ratio of 90% or more (almost completely withered)) | 5 (Herbicidal ratio of 90% or more (almost completely withered)) | 5 (Herbicidal ratio of 90% or more (almost completely withered)) | 5 (Herbicidal ratio of 90% or more (almost completely withered)) | 5 (Herbicidal ratio of 90% or more (almost completely withered)) | 5 (Herbicidal ratio of 90% or more (almost completely withered)) | 4 (Herbicidal ratio of 70% or higher and lower than 90%) | 5 (Herbicidal ratio of 90% or more (almost completely withered)) | 5 (Herbicidal ratio of 90% or more (almost completely withered)) | 5 (Herbicidal ratio of 90% or more (almost completely withered)) | 4 (Herbicidal ratio of 70% or higher and lower than 90%) | 5 (Herbicidal ratio of 90% or more (almost completely withered)) | 2 (Herbicidal ratio of 20% or higher and lower than 40%) | 
CON=C(CC1CC(O)=C(c2c(C)cc(C)cc2C)C1=O)C1CC1 (stereo not drawn) [1-046] | 3 (Herbicidal ratio of 40% or higher and lower than 70%) | 5 (Herbicidal ratio of 90% or more (almost completely withered)) | 5 (Herbicidal ratio of 90% or more (almost completely withered)) | 4 (Herbicidal ratio of 70% or higher and lower than 90%) | 5 (Herbicidal ratio of 90% or more (almost completely withered)) | 4 (Herbicidal ratio of 70% or higher and lower than 90%) | 2 (Herbicidal ratio of 20% or higher and lower than 40%) | 5 (Herbicidal ratio of 90% or more (almost completely withered)) | 4 (Herbicidal ratio of 70% or higher and lower than 90%) | 4 (Herbicidal ratio of 70% or higher and lower than 90%) | 5 (Herbicidal ratio of 90% or more (almost completely withered)) | 5 (Herbicidal ratio of 90% or more (almost completely withered)) | 3 (Herbicidal ratio of 40% or higher and lower than 70%) | 4 (Herbicidal ratio of 70% or higher and lower than 90%) | 0 (Herbicidal ratio of 5% or lower (almost no effect)) | 
CON=C(C)CC1CC(OC(=O)COc2ccc(F)cc2)=C(c2c(C)cc(C)cc2C)C1=O (stereo not drawn) [1-073] | 2 (Herbicidal ratio of 20% or higher and lower than 40%) | 5 (Herbicidal ratio of 90% or more (almost completely withered)) | 5 (Herbicidal ratio of 90% or more (almost completely withered)) | 5 (Herbicidal ratio of 90% or more (almost completely withered)) | 5 (Herbicidal ratio of 90% or more (almost completely withered)) | 5 (Herbicidal ratio of 90% or more (almost completely withered)) | 5 (Herbicidal ratio of 90% or more (almost completely withered)) | 5 (Herbicidal ratio of 90% or more (almost completely withered)) | 4 (Herbicidal ratio of 70% or higher and lower than 90%) |  |  |  |  |  |  | F: Digitaria ciliaris, herbicidal effect (criteria 0-5) [10]: 5 (Herbicidal ratio of 90% or more (almost completely withered)); I: Avena fatua, herbicidal effect (criteria 0-5) [11]: 5 (Herbicidal ratio of 90% or more (almost completely withered)); J: Alopecurus myosuroides, herbicidal effect (criteria 0-5) [12]: 5 (Herbicidal ratio of 90% or more (almost completely withered)); d: soybean, effect on crop (criteria 0-5) [13]: 3 (Herbicidal ratio of 40% or higher and lower than 70%); e: wheat, effect on crop (criteria 0-5) [14]: 5 (Herbicidal ratio of 90% or more (almost completely withered)); f: beet, effect on crop (criteria 0-5) [15]: 1 (Herbicidal ratio of 5% or higher and lower than 20%)
